{
  "source": "paper PMC7312435",
  "about": "“Direct inhibition of the TLR4/MyD88 pathway by geniposide suppresses HIF‐1α‐independent VEGF expression and angiogenesis in hepatocellular carcinoma” (British Journal of Pharmacology, 2020)",
  "target": "T1, recombinant human TLR4 (Homo sapiens, UniProt O00206)",
  "T1 construct": "amine-coupled to CM5 chip",
  "T1 sequence (O00206 24-839)": "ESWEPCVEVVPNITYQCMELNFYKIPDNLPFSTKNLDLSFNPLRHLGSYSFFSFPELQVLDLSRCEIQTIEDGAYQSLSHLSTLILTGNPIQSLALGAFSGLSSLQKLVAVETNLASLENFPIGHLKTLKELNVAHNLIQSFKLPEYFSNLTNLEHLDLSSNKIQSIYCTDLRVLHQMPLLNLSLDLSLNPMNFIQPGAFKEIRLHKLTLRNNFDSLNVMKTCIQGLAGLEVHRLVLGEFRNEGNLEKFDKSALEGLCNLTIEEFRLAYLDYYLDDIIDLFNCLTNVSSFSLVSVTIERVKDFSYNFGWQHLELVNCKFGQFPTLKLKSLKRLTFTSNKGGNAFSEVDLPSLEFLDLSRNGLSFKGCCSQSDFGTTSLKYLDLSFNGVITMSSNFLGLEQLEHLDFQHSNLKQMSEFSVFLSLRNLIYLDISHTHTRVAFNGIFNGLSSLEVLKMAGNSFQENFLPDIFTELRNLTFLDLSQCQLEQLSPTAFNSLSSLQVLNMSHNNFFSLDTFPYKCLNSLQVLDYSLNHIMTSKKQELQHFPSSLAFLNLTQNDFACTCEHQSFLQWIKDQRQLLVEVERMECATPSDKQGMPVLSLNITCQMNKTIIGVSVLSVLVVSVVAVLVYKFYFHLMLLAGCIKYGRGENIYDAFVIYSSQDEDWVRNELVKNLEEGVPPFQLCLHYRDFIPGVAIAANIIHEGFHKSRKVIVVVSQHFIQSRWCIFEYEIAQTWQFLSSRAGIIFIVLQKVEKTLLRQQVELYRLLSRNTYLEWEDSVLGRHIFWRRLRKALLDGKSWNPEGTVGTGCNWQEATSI",
  "experiment": "surface plasmon resonance (Biacore X100), steady-state fit",
  "type": "binding",
  "conditions": "PBS with 0.05% Triton X-100, pH 7.4; geniposide 0-12.8 uM; TLR4 immobilised on CM5 chip (1,300 RU)",
  "data": [
    {"smiles": "COC(=O)C1=CO[C@@H](O[C@@H]2O[C@H](CO)[C@@H](O)[C@H](O)[C@H]2O)[C@@H]2C(CO)=CC[C@H]12", "note": "[geniposide]", "values": [
      {"measurement": "K D", "result": 6.716, "unit": "e^−6 M"}
    ]}
  ]
}
